Results taken from PubChem BioAssay AID2060500 (Molecular Pharmacology Branch, DTP, NCI, 2025).

Tested on: 596521-263-R-J1-PDC complex spheroids, viability % of control
Assay: Anticancer human tumor 596521-263-R-J1-PDC patient-derived soft tissue sarcoma cell line growth inhibition [GQUAD]
Settings: for IC50: curve of first compound; for viability, T/C: stronger effect = lower value
Description: DNA G-quadruplex Stabilizer Agents in Combinations in Complex Spheroids
A high-throughput screen of multi-cell type tumor spheroids was designed to identify active combinations of DNA G-quadruplex stabilizer agents and targeted small molecules. Complex spheroids include a stromal component modeled by human endothelial cells (HUVEC) and fibroblasts modeled by human mesenchymal stem cells (MSCs). The concentration ranges selected for each drug and investigational agent were based upon clinically achievable concentrations if the clinical Cmax of the agent was known.
Compounds. The drugs and investigational agents: pidnarulex (CX-5461; NSC782164), APTO-253 (NSC789042), BRACO-19 (NSC847499), peposertib (NSC802822), ceralasertib (NSC780249), elimusertib (NSC800525), camonsertib (NSC841442), AZD-1390 (NSC803789), olaparib (NSC753686), talazoparib (NSC767125), ART-558 (NSC835418), sotorasib (NSC818433), MRTX-1133 (NSC836407), SN-38 (NSC673596), topotecan (NSC609699), etoposide (NSC141540), doxorubicin (NSC123127), gemcitabine (NSC613327), 5-fluorouracil (NSC19893), paclitaxel (NSC125973), vemurafenib (NSC761431), panobinostat (NSC761190), R-306465 (JNJ-16241199; NSC773264), adavosertib (NSC754352), TP-3654 (NSC805149), carboplatin (NSC241240), KSQ-4279 (NSC840948), and staurosporine (NSC755774) were obtained from the National Cancer Institute (NCI) Developmental Therapeutics Program Chemical Repository (34). The FDA-approved anticancer drug set is available from the NCI Developmental Therapeutics Program. […] The stock solutions were prepared in dimethyl sulfoxide (DMSO, Sigma-Aldrich, St. Louis, MO, cat. D2650) at 800-fold the tested concentration and stored at -70 degrees C prior to their use. All drugs and investigational agents were tested over a range starting from a high concentration at or near the clinical Cmax and decreasing in half-log increments. If the clinical Cmax for an agent had not been determined, the highest concentration tested was 10 microM.
2.3 Cell Culture. All cells were maintained in an incubator at 37 degrees C and 5% CO2 with 95% humidity. The PDC lines were cultured according to standard operating procedures established by the NCI PDMR. All PDCs were thawed and cultured in Matrigel-coated flasks prepared with a working solution of 1X Ham's F-12 nutrient mix, without supplementation (Invitrogen, cat. 11765054), 100 U/mL penicillin-streptomycin (Invitrogen, cat. 15140122), and 2.5% Matrigel (Corning Inc., cat. 354248) for the first three passages. The 857933-349-R-J2-PDC line was cultured in 6C/Colon 1B media, which includes advanced DMEM/F-12 (Thermo Fisher Scientific, cat. 12634028), 10 mM HEPES (Thermo Fisher Scientific, cat. 15630080), 1X GlutaMAX supplement (Thermo Fisher Scientific, cat. 35050061), 0.1 mg/mL primocin (InvivoGen, cat. ant-pm-2), 10% defined fetal bovine serum, heat inactivated (HyClone Laboratories Inc., cat. SH30070.03HI), 50% L-WRN conditioned media (ATCC, cat. CRL-3276), 1.25 mM N-Acetyl-L-cysteine (Sigma-Aldrich, cat. A9165), 10 mM nicotinamide (Sigma-Aldrich, cat. N0636), 1X B-27 supplement (Thermo Fisher Scientific, cat. 17504044), 1X N-2 supplement (Thermo Fisher Scientific, cat. 17502048), 10 microM Y-27632 dihydrochloride (Tocris Bioscience, cat. 1254), and 50 ng/mL human EGF recombinant protein (Thermo Fisher Scientific, cat. PHG0311). The 485176-168-R4-J1-PDC line was cultured in Panc media, which includes all 6C/Colon 1B media components plus 100 ng/mL human FGF-10 (Thermo Fisher Scientific, cat. 100-26), 500 nM SB-431542 (Selleckchem, cat. S1067), and gastrin (Tocris, cat. 3006).
[…]
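Note: spheroids exposed to drugs for 7 days before viability reading.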

Cc1cccc(N(C)C(=O)C2C(O)CCN2c2nc(C)cc(C(F)(F)F)c2C#N)c1 (configuration not stated) + CN(C)c1ccc(Nc2c3ccc(NC(=O)CCN4CCCC4)cc3nc3cc(NC(=O)CCN4CCCC4)ccc23)cc1
IC50 (second compound 0.0316 µM): > 10 µM
IC50 (second compound 0.1 µM): > 10 µM
IC50 (second compound 0.316 µM): > 10 µM
IC50 (second compound 1 µM): > 10 µM
IC50 (second compound 3.16 µM): > 10 µM
IC50 (second compound 10 µM): > 10 µM
viability, T/C (second compound 0.0316 µM, first compound 0.0316 µM): 108%
viability, T/C (second compound 0.0316 µM, first compound 0.1 µM): 99%
viability, T/C (second compound 0.0316 µM, first compound 0.316 µM): 89.8%
viability, T/C (second compound 0.0316 µM, first compound 1 µM): 94.1%
viability, T/C (second compound 0.0316 µM, first compound 3.16 µM): 101%
viability, T/C (second compound 0.0316 µM, first compound 10 µM): 101%
viability, T/C (second compound 0.1 µM, first compound 0.0316 µM): 118%
viability, T/C (second compound 0.1 µM, first compound 0.1 µM): 95.7%
viability, T/C (second compound 0.1 µM, first compound 0.316 µM): 91.6%
viability, T/C (second compound 0.1 µM, first compound 1 µM): 109%
viability, T/C (second compound 0.1 µM, first compound 3.16 µM): 95.5%
viability, T/C (second compound 0.1 µM, first compound 10 µM): 109%
viability, T/C (second compound 0.316 µM, first compound 0.0316 µM): 102%
viability, T/C (second compound 0.316 µM, first compound 0.1 µM): 102%
viability, T/C (second compound 0.316 µM, first compound 0.316 µM): 100%
viability, T/C (second compound 0.316 µM, first compound 1 µM): 115%
viability, T/C (second compound 0.316 µM, first compound 3.16 µM): 113%
viability, T/C (second compound 0.316 µM, first compound 10 µM): 102%
viability, T/C (second compound 1 µM, first compound 0.0316 µM): 90.6%
viability, T/C (second compound 1 µM, first compound 0.1 µM): 103%
viability, T/C (second compound 1 µM, first compound 0.316 µM): 105%
viability, T/C (second compound 1 µM, first compound 1 µM): 105%
viability, T/C (second compound 1 µM, first compound 3.16 µM): 97.6%
viability, T/C (second compound 1 µM, first compound 10 µM): 88%
viability, T/C (second compound 3.16 µM, first compound 0.0316 µM): 88%
viability, T/C (second compound 3.16 µM, first compound 0.1 µM): 98.1%
viability, T/C (second compound 3.16 µM, first compound 0.316 µM): 95.8%
viability, T/C (second compound 3.16 µM, first compound 1 µM): 91%
viability, T/C (second compound 3.16 µM, first compound 3.16 µM): 85.9%
viability, T/C (second compound 3.16 µM, first compound 10 µM): 87.7%
viability, T/C (second compound 10 µM, first compound 0.0316 µM): 62.7%
viability, T/C (second compound 10 µM, first compound 0.1 µM): 63.6%
viability, T/C (second compound 10 µM, first compound 0.316 µM): 72.9%
viability, T/C (second compound 10 µM, first compound 1 µM): 63.7%
viability, T/C (second compound 10 µM, first compound 3.16 µM): 58.8%
viability, T/C (second compound 10 µM, first compound 10 µM): 47.8%
